The record followed here is ChEMBL document CHEMBL6153174, “Design and Synthesis of Novel Deazapurine DNMT 1 Inhibitors with In Vivo Efficacy in DLBCL” (J Med Chem, 2025).

As a reminder, the IC50 is the concentration at which inhibition is half-maximal. Broadly, the inhibition is the share of the control response that was lost under treatment.

The subject of one data set is MOLM-13. Description: Antiproliferative activity against human MOLM-13 cells assessed as inhibition of cell viability measured after 72 hrs by MTT assay. It counts as functional, cell-based. The note with it: MOLM-13, 72 h.
For data set [1], the system named is TMD8. Description: Antitumor activity against human TMD8 cells xenografted in mouse model assessed as tumor inhibition rate at 10 mg/kg, iv administered three times a week relative to control. Type of data set: functional. Also on record: scale not given: the % may be the effect or the level left. For orientation: Xenograft models place foreign cells or tissue in a host animal.

Data set [2] can be described thus: Subacute toxicity in Balb/C mouse assessed as effect on hematocrit at 30 mg/kg, iv administered three times in a week for 2 weeks. Type of data set: organism-based. To be noted: in vivo, 336 h.
The nature of data set [3]: Antiproliferative activity against human NK-YS cells assessed as inhibition of cell viability measured after 72 hrs by MTT assay. Type of data set: functional, cell-based. For orientation: Formazan colour is commonly taken as a measure of viable cells.
The nature of data set [4]: Subacute toxicity in Balb/C mouse assessed as effect on kidney at 30 mg/kg, iv administered three times in a week for 2 weeks. Type of data set: organism-based. To be noted: in vivo, 336 h.
Data set [5] deals with DOHH-2. The data set can be described thus: Induction of cell cycle arrest in human DOHH-2 cells assessed as accumulation of cells at G0-G1 phase at 1 uM incubated for 24 hrs by PI staining based flow cytometry analysis (reference value: 27.1%). Type of data set: functional.
The nature of data set [6]: Subacute toxicity in Balb/C mouse assessed as effect on hemoglobin at 30 mg/kg, iv administered three times in a week for 2 weeks. It counts as organism-based. To be noted: in vivo, 336 h.
Data set [7] concerns the target T1, DNA (cytosine-5)-methyltransferase 3B (Homo sapiens, UniProt Q9UBC3). The data set can be described thus: Inhibition of DNMT3B (unknown origin) preincubated for 15 mins followed by substrate and [3H-SAM] addition and measured after 60 mins by microbeta analysis.
A short description of data set [8]: Upregulation of BAX mRNA level in human DOHH-2 cells assessed as fold change at 300 nM measured after 6 days by PCR analysis. Type of data set: functional. To be noted: time 6 day.
The test system of data set [9] is DOHH-2. Description: Induction of cell cycle arrest in human DOHH-2 cells assessed as accumulation of cells at S phase at 0.25 uM incubated for 24 hrs by PI staining based flow cytometry analysis (reference value: 40.7%). Type of data set: functional. A general note: In flow cytometry, cells or beads pass a laser one at a time.
Data set [10] addresses T1, DNA (cytosine-5)-methyltransferase 3B. The data set can be described thus: Inhibition of DNMT3B (unknown origin) at 5 uM preincubated for 15 mins followed by substrate and [3H-SAM] addition and measured after 60 mins by microbeta analysis relative to control. To be noted: time 75.0 min.
A short description of data set [11]: Volume of distribution at steady state in Sprague-Dawley rat at 10 mg/kg, po measured upto 24 hrs by LC/MS/MS analysis. It counts as ADME, organism-based. To be noted: in vivo.
For data set [12], the system named is DOHH-2. The data set can be described thus: Induction of cell cycle arrest in human DOHH-2 cells assessed as accumulation of cells at G2/M phase incubated for 24 hrs by PI staining based flow cytometry analysis. To be noted: dose 0.25-1 µM. It counts as functional.
Data set [13] concerns TMD8. The data set can be described thus: Induction of cell cycle arrest in human TMD8 cells assessed as accumulation of cells at G2/M phase incubated for 24 hrs by PI staining based flow cytometry analysis. Type of data set: functional. To be noted: dose 0.25-1 µM.
The test system of data set [14] is DOHH-2. Description: Induction of apoptosis in human DOHH-2 cells assessed as late apoptotic cells at 0.25 uM measured after 48 hrs by annexin-V/FITC and PI staining based flow cytometry analysis (reference value: 3.66%). Type of data set: functional.
A further data set has as its system MDA-MB-231. Description: Antiproliferative activity against human MDA-MB-231 cells assessed as inhibition of cell viability measured after 72 hrs by MTT assay. The note with it: MDA-MB-231, 72 h. It counts as functional, cell-based.
For a further data set, the system named is U2932. The data set can be described thus: Antiproliferative activity against human U2932 cells assessed as inhibition of cell viability measured after 72 hrs by MTT assay. Type of data set: functional, cell-based. To be noted: U2932, 72 h.
Data set [15] has as its system TMD8. Description: Induction of cell cycle arrest in human TMD8 cells assessed as accumulation of cells at G2/M phase at 0.5 uM incubated for 24 hrs by PI staining based flow cytometry analysis (reference value: 20.4%). Type of data set: functional.
For data set [16], the system named is DOHH-2. The data set can be described thus: Induction of apoptosis in human DOHH-2 cells assessed as late apoptotic cells at 2.5 uM measured after 48 hrs by annexin-V/FITC and PI staining based flow cytometry analysis (reference value: 3.66%). It counts as functional.
The subject of data set [17] is DOHH-2. Description: Induction of apoptosis in human DOHH-2 cells assessed as late apoptotic cells at 5 uM measured after 48 hrs by annexin-V/FITC and PI staining based flow cytometry analysis (reference value: 3.66%). Type of data set: functional.
In a further data set the test system is HepG2. The data set can be described thus: Antiproliferative activity against human HepG2 cells assessed as inhibition of cell viability measured after 72 hrs by MTT assay. Type of data set: functional, cell-based. The note with it: HepG2, 72 h.
Data set [18] concerns the target T2, Histone-lysine N-methyltransferase EHMT2 (Homo sapiens, UniProt Q96KQ7).
T2 sequence (Q96KQ7 whole entry): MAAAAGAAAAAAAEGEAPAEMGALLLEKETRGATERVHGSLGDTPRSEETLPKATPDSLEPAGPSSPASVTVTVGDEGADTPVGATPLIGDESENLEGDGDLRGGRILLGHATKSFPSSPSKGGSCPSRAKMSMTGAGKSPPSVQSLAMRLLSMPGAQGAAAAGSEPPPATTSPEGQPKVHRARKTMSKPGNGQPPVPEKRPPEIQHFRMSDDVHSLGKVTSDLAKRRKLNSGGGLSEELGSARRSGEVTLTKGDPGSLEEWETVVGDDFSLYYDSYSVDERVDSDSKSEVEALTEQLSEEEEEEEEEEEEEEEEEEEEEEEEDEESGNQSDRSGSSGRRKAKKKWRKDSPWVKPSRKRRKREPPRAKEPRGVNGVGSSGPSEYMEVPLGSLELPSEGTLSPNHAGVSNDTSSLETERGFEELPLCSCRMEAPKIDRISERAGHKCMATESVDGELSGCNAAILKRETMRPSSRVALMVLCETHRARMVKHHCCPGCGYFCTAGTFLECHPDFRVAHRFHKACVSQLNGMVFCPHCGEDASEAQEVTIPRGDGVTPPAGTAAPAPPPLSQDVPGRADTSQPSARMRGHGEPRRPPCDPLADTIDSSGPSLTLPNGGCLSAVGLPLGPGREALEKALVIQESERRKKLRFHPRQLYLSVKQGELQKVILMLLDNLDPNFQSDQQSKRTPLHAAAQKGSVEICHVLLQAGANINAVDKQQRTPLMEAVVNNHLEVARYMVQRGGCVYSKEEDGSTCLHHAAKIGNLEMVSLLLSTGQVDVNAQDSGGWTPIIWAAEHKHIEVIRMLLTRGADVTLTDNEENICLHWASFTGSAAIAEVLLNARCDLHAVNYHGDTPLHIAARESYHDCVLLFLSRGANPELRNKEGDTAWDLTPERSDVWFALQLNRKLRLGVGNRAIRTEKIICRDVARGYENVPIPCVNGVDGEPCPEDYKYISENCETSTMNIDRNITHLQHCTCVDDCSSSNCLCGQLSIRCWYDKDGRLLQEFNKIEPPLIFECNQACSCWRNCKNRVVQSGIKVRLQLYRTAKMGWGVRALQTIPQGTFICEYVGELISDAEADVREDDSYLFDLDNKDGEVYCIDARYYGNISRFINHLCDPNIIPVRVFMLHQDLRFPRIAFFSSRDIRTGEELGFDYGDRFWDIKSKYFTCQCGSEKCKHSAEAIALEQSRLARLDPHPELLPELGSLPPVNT
The data set can be described thus: Inhibition of G9a (unknown origin) preincubated for 15 mins followed by substrate and [3H-SAM] addition and measured after 60 mins by microbeta analysis.

In data set [19] the test system is DOHH-2. Description: Induction of apoptosis in human DOHH-2 cells assessed as early apoptotic cells measured after 48 hrs by annexin-V/FITC and PI staining based flow cytometry analysis. Type of data set: functional, cell-based. The note with it: dose 0.25-5 µM.

On to `CN1CCC(Nc2nc(-c3ccnc(F)c3)nc3c2ccn3CCCN2CCCC2)CC1`, for which the IC50 in the data set with MOLM-13 was 1.06 µM; in data set [3], 0.77 µM; in data set [7], over 20 µM; in the data set with MDA-MB-231, 3.91 µM; in the data set on U2932, 0.54 µM; in the data set with HepG2, 2.88 µM. In data set [18], the IC50 was over 20 µM. Further, the Activity was 54.61% in the data set with TMD8 [1]; “Non-toxic” in [2]; “Non-toxic” in data set [4]; 42.2% with DOHH-2 [5]; “Non-toxic” in data set [6]; 37.3% in the data set with DOHH-2 [9]. For the same molecule, the Activity entry in the data set on DOHH-2 [12] was “Dose-dependent-effect”; in the data set on TMD8 [13], “Dose-dependent-effect”; with DOHH-2 [14], 7.58%; in the data set on TMD8 [15], 28.8%; in the data set on DOHH-2 [16], 23.5%; in the data set on DOHH-2 [17], 34.7%. For the same molecule, the Activity result in the data set on DOHH-2 [19] is “Dose-dependent-effect”. In addition, the “fold change (FC)” value in data set [8] stood at 1.93. Further, the inhibition in data set [10] is 1.1%. In data set [11], this molecule displayed a Vdss of 574.7 L/kg.
